Results reported in patent US7786141B2 (Vertex Pharmaceuticals Incorporated, priority 2004, dated 2010).

Assays:
[1] = target: T1, M1 muscarinic receptor (Homo sapiens, UniProt P11229); assay: Functional mobilization of intracellular calcium (FLIPR) in M1-CHO cells; format: cell-based; settings: Table 4; for Emax: 100% efficacy is the maximum response obtained with the Carbachol control
T1 construct: expressed in transfected cells; host or cells: CHO (M1-CHO)
T1 sequence (P11229 1-460): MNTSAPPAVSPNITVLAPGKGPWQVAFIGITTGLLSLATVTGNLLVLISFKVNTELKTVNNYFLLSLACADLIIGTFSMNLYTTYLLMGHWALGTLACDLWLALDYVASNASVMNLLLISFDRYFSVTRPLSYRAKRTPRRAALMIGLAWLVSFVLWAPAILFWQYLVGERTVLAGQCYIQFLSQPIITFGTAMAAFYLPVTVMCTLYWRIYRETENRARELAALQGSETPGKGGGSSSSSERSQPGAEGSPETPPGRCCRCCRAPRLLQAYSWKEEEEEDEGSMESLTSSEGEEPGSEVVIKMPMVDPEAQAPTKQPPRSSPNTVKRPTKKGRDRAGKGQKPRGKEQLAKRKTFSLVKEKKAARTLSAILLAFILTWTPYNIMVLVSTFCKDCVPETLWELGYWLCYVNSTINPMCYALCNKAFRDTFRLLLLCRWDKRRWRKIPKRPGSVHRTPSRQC
Summary of the method: (§1)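 FLIPR Ca2+ read, ex 488/em 540 nm, 60 s. Recombinant CHO lines (M1 or M4), dye-loaded Fluo-3 AM 60-90 min at 37° C, probenecid 1 mM, pH 7.4. Agonist: compound alone; inhibition: 15 min compound pre-incubation, then carbachol at EC80 for that subtype.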

[2] = target: T2, M4 muscarinic receptor (Homo sapiens, UniProt P08173); assay: Functional mobilization of intracellular calcium (FLIPR) in M4-CHO cells; format: cell-based; settings: Table 4; for Emax: 100% efficacy is the maximum response obtained with the Carbachol control
T2 construct: expressed in transfected cells; host or cells: CHO (M4-CHO)
T2 sequence (P08173 1-479): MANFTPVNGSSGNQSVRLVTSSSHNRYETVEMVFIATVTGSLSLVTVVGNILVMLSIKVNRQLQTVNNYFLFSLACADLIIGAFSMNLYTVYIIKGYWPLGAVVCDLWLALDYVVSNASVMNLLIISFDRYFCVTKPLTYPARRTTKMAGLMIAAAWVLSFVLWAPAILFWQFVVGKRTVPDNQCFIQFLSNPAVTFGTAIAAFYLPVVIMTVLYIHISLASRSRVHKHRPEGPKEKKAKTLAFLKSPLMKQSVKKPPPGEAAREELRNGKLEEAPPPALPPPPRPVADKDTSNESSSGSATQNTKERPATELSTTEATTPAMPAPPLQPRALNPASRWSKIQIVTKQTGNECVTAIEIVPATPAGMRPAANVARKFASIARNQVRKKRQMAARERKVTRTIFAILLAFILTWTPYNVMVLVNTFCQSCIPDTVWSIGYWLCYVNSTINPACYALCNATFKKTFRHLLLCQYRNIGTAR
Summary of the method: as §1

[3] = M1 receptor, calcium mobilization (FLIPR)
[4] = M4 receptor, calcium mobilization (FLIPR)

Row | SMILES | Emax [1] [%] | M1 Activity ([1]; modulating M1 receptor) | Emax [2] [%] | M4 Activity ([2]; modulating M4 receptor) | M1 Activity [1, 3] | M4 Activity [2, 4]
1 | CN(C)C(=O)N1CC2(CCN(C3CCN(C(=O)c4cccnc4)CC3)CC2)c2cc(F)ccc21 [compound 795] | < 25 | xx (activity was measured to be between 2.0 μM and 5.0 μM) | < 25 | x (activity was measured to be greater than 5.0 μM) |  | 
2 | CC(=O)CN1CC2(CCN(C3CCCCC3)CC2)c2cc(F)ccc21 [compound 796] | 25 to 100 | xxx (activity was measured to be less than 2.0 μM) | 25 to 100 | xxx (activity was measured to be less than 2.0 μM) |  | 
3 | CCCC(=O)N[C@H]1CC2(CCN(CC3CCCCC3)CC2)c2ccccc21 [compound 797] | 25 to 100 | x (activity was measured to be greater than 5.0 μM) | 25 to 100 | xxx (activity was measured to be less than 2.0 μM) |  | 
4 | O=C(N[C@H]1CC2(CCN(CCC3CC4CC[C@@H]3C4)CC2)c2ccccc21)c1ccoc1 (stereo partly shown) [compound 798] | < 25 | x (activity was measured to be greater than 5.0 μM) | < 25 | x (activity was measured to be greater than 5.0 μM) |  | 
5 | CCOC(=O)N1CCC(N2CCC3(CC2)CN(C(C)=O)c2c(-c4ccccc4OC)cccc23)CC1 [compound 799] | < 25 | x (activity was measured to be greater than 5.0 μM) | < 25 | x (activity was measured to be greater than 5.0 μM) |  | 
6 | CCOC(=O)N1CCC(N2CCC3(CC2)CN(CC(=O)N(C)C)c2ccc(F)cc23)CC1 [compound 800] | 25 to 100 | xxx (activity was measured to be less than 2.0 μM) | 25 to 100 | xxx (activity was measured to be less than 2.0 μM) |  | 
7 | O=C(N[C@H]1CC2(CCN(C3CCCCC3)CC2)c2ccccc21)c1ccoc1 [compound 801] | < 25 | x (activity was measured to be greater than 5.0 μM) | < 25 | x (activity was measured to be greater than 5.0 μM) |  | 
8 | c1ccc2c(c1)CCCC21CCN(CC2CCCCC2)CC1 [compound 802] | 25 to 100 |  | 25 to 100 |  |  | 
9 | O=C(O)C1CC2(CCN(CC3CCCCC3)CC2)c2ccccc21 (stereo not shown) [compound 803] | < 25 |  | < 25 |  | x (activity was measured to be greater than 5.0 μM) | x (activity was measured to be greater than 5.0 μM)
10 | Cc1cc(C(=O)N2CCC(N3CCC4(CC3)CN(C(=O)N(C)C)c3ccc(F)cc34)CC2)no1 [compound 804] | < 25 |  | < 25 |  | x (activity was measured to be greater than 5.0 μM) | x (activity was measured to be greater than 5.0 μM)
11 | CC(CF)OC(=O)N1CC[C@@H](CN2CCC3(CC2)CN(C(=O)N(C)C)c2ccc(F)cc23)C1 (stereo partly shown) [compound 805] | 25 to 100 |  | 25 to 100 |  | xxx (activity was measured to be less than 2.0 μM) | xxx (activity was measured to be less than 2.0 μM)
12 | CC(=O)N[C@H]1CC2(CCN(CC(=O)N(C)C3CCN(C)CC3)CC2)c2ccccc21 [compound 806] | < 25 |  | < 25 |  | x (activity was measured to be greater than 5.0 μM) | x (activity was measured to be greater than 5.0 μM)
13 | COC(=O)N1CC[C@H](CN2CCC3(CC2)CN(C(=O)N(C)C)c2ccc(F)cc23)C1 [compound 807] | 25 to 100 |  | 25 to 100 |  | xxx (activity was measured to be less than 2.0 μM) | xxx (activity was measured to be less than 2.0 μM)
14 | CCOC(=O)N1CCC(N2CCC3(CC2)CN(c2ccc(F)cc2)c2ccc(F)cc23)CC1 [compound 808] | 25 to 100 |  | 25 to 100 |  | xxx (activity was measured to be less than 2.0 μM) | xxx (activity was measured to be less than 2.0 μM)
15 | CCOC(=O)N1C2CCC1CC(N1CCC3(CC[C@H](NS(C)(=O)=O)c4ccccc43)CC1)C2 (stereo partly shown) [compound 809] | 25 to 100 |  | 25 to 100 |  | xxx (activity was measured to be less than 2.0 μM) | xxx (activity was measured to be less than 2.0 μM)
16 | CCOC(=O)N1C2CCC1CC(N1CCC3(CC[C@H](NC(C)=O)c4ccccc43)CC1)C2 (stereo partly shown) [compound 810] | 25 to 100 |  | 25 to 100 |  | xxx (activity was measured to be less than 2.0 μM) | xxx (activity was measured to be less than 2.0 μM)
17 | CN(C)C(=O)N1CC2(CCN(C3CCN(C(=O)c4ccsc4)CC3)CC2)c2cc(F)ccc21 [compound 812] | 25 to 100 |  | < 25 |  | xx (activity was measured to be between 2.0 μM and 5.0 μM) | x (activity was measured to be greater than 5.0 μM)
18 | Cc1ccc2c(c1)C1(CCN(C3CC4CCC3C4)CC1)CN2C(=O)c1ccccn1 (stereo not shown) [compound 813] | 25 to 100 |  | < 25 |  | x (activity was measured to be greater than 5.0 μM) | x (activity was measured to be greater than 5.0 μM)
19 | COc1ccc(F)cc1N1CCC(N2CCC3(CC2)CN(C(=O)N(C)C)c2ccc(F)cc23)CC1 [compound 814] | 25 to 100 |  | 25 to 100 |  | x (activity was measured to be greater than 5.0 μM) | xx (activity was measured to be between 2.0 μM and 5.0 μM)
20 | CN(C)C(=O)CN1CC2(CCN(C[C@@H]3C[C@H]4C=CC3C4)CC2)c2cc(F)ccc21 [compound 815] | 25 to 100 |  | 25 to 100 |  | xx (activity was measured to be between 2.0 μM and 5.0 μM) | xxx (activity was measured to be less than 2.0 μM)
21 | C#CCOC(=O)N1CC[C@@H](CN2CCC3(CC2)CN(C(C)=O)c2ccccc23)C1 [compound 816] | > 100 |  | > 100 |  | xxx (activity was measured to be less than 2.0 μM) | xxx (activity was measured to be less than 2.0 μM)
22 | CC1=C(CCN2CCC3(CC2)C[C@H](NC(=O)c2ccoc2)c2ccccc23)C(C)(C)CCC1 [compound 817] | < 25 |  | < 25 |  | x (activity was measured to be greater than 5.0 μM) | x (activity was measured to be greater than 5.0 μM)
23 | CC(=O)N[C@H]1CC2(CCN(CC3CCN(C(=O)OC4CCC4)CC3)CC2)c2ccccc21 [compound 818] | < 25 |  | < 25 |  | x (activity was measured to be greater than 5.0 μM) | x (activity was measured to be greater than 5.0 μM)
24 | CC(=O)N[C@H]1CCC2(CCN(CCC3CCCN(C(=O)OC(C)(C)C)C3)CC2)c2ccccc21 (stereo partly shown) [compound 819] | 25 to 100 |  | < 25 |  | xxx (activity was measured to be less than 2.0 μM) | x (activity was measured to be greater than 5.0 μM)
